These results are taken from ChEMBL document CHEMBL4715877, “Asperginols A and B, Diterpene Pyrones, from an Aspergillus sp. and the Structure Revision of Previously Reported Analogues” (J Nat Prod, 2020).

Structures are written as SMILES.

Assay type in all cases: functional, cell-based; call rule not given here
In test [1] the test system is HepG2. Put plainly: Cytotoxicity against human HepG2 cells assessed as reduction in cell viability after 72 hrs by MTT assay.
Test [2] concerns HT-29. Put plainly: Cytotoxicity against human HT-29 cells assessed as reduction in cell viability after 72 hrs by MTT assay.
In test [3] the test system is HCT-116. The experiment in a line: Cytotoxicity against human HCT-116 cells assessed as reduction in cell viability after 72 hrs by MTT assay.

Regarding `C=C1[C@H](O)C[C@@H]2[C@](C)(CC[C@H]3OC(C)(C)[C@@H](OC(=O)/C=C/C=C/[C@@H](C)CC)CC[C@]23C)[C@@H]1Cc1c(O)c(C)c(C)oc1=O`, the IC50 result in test [1], in test [2] (ht-29) and in test [3] was “Not Active” in each case.

As to `C=C1[C@H](O)C[C@@H]2[C@](C)(CC[C@H]3OC(C)(C)[C@@H](OC(C)=O)CC[C@]23C)[C@@H]1Cc1c(O)c(C)c(C)oc1=O`, the IC50 result in test [1], in test [2] (ht-29) and in test [3] was “Not Active” throughout.

As to `C=C1CC[C@@H]2[C@](C)(CC[C@H]3OC(C)(C)[C@@H](O)CC[C@]23C)[C@@H]1Cc1c(O)c(C)c(C)oc1=O`, the IC50 result in test [1], in test [2] (ht-29) and in test [3] was “Not Active” in each case.

Regarding `C=C1CC[C@@H]2[C@](C)(CC[C@H]3OC(C)(C)[C@@H](OC(=O)/C=C/C=C/[C@@H](C)CC)CC[C@]23C)[C@@H]1Cc1c(O)c(C)c(C)oc1=O`, the IC50 result in test [1], in test [2] (ht-29) and in test [3] was “Not Active” in each case.

Turning to `C=C1[C@H](O)C[C@@H]2[C@](C)(CC[C@H]3OC(C)(C)[C@@H](O)CC[C@]23C)[C@@H]1Cc1c(O)c(C)c(C)oc1=O`, the IC50 entry in test [1], in test [2] (ht-29) and in test [3] was “Not Active” throughout.

In the case of `C=C1[C@H](O)C[C@@H]2[C@](C)(CC[C@H]3OC(C)(C)[C@@H](OC(=O)/C=C/C=C/C=C/[C@@H](C)CC)CC[C@]23C)[C@@H]1Cc1c(O)c(C)c(C)oc1=O`, the IC50 result in test [1] was “Not Active”; in test [2] (Homo sapiens, HT-29, 72 h, read-out: IC50), 7.6 µM; in test [3], “Not Active”.
